According to PubChem BioAssay (NCI):
Where “and” joins values, the source holds several entries; their conditions need not be identical. Equal values may be shown once.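 Grown in 96-well plates, cells were treated for 48 hours with each compound at five concentrations. Insufficient inhibition: endpoint recorded as highest concentration tested. Here, GI50 denotes the concentration required for 50% inhibition of growth. TGI: total growth inhibition.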

Assays:
Experiment in all cases: DTP human tumour cell line panel, 48 h
OVCAR-8 ovarian = tested on: OVCAR-8 ovarian
SNB-75 CNS = tested on: SNB-75 CNS
786-0 renal = tested on: 786-0 renal
DU-145 prostate = tested on: DU-145 prostate
RPMI-8226 leukemia = tested on: RPMI-8226 leukemia
KM12 colon = tested on: KM12 colon
HCC-2998 colon = tested on: HCC-2998 colon
A549 NSCLC = tested on: A549 NSCLC
HT29 colon = tested on: HT29 colon
MCF7 breast = tested on: MCF7 breast

SMILES | GI50 (OVCAR-8 ovarian) | TGI (OVCAR-8 ovarian) | TGI (SNB-75 CNS) | GI50 (786-0 renal) | TGI (786-0 renal) | GI50 (DU-145 prostate) | TGI (DU-145 prostate) | GI50 (RPMI-8226 leukemia) | TGI (RPMI-8226 leukemia) | GI50 (KM12 colon) | TGI (KM12 colon) | GI50 (HCC-2998 colon) [µM] | TGI (HCC-2998 colon) | GI50 (A549 NSCLC) | TGI (A549 NSCLC) | GI50 (HT29 colon) | TGI (HT29 colon) | GI50 (MCF7 breast) [nM] | TGI (MCF7 breast) | GI50 (SNB-75 CNS)
Fc1ccc(-c2nn3ncccc3c2-c2ccnc(Nc3ccc4c(c3)OCCO4)n2)cc1 | 6150 nM | > 25 µM | > 25 µM | 2290 nM | > 25 µM | 6.26 µM | > 25 µM | 7.85 µM | > 25 µM | 5320 nM | 19.8 µM | 4.81 | 10.1 µM | 2710 nM | > 25 µM | 933 nM | > 13.6 µM | 2790 | > 25 µM | 
CON(C)C(=O)N1N=C(c2cc(F)ccc2F)SC1(CCCN)c1ccccc1 (centres undefined) | 26.6 nM and < 10 nM | 18.9 µM and 19.8 µM | 16.2 µM and 15 µM | 57.4 nM and < 10 nM | 18.1 µM and 18.5 µM | 0.0336 µM and < 0.01 µM | 11.8 µM and 11.3 µM | 0.0131 µM and < 0.01 µM | 11 µM and 9.04 µM | 28 nM and < 10 nM | 13.5 µM and 12.9 µM | < 0.01 | 4.34 µM and 4.41 µM | 24 nM and < 10 nM | 17.1 µM and 18.2 µM | 30.1 nM and < 10 nM | 5.05 µM and 10.8 µM | < 10 | 11.6 µM and 11.5 µM | 53.1 nM and < 10 nM
CN1C(=O)c2ccccc2NC(=O)C12O[C@@H]2c1cccc(O)c1 (some centres undefined) |  | > 100 µM | > 100 µM |  | > 100 µM |  | > 100 µM |  | > 100 µM |  | > 100 µM |  | > 100 µM |  | > 100 µM |  | > 100 µM |  | > 100 µM | 
O=C(/C=C\n1cnc(-c2cc(C(F)(F)F)cc(C(F)(F)F)c2)n1)NNc1cnccn1 | 76.9 nM | 36.5 µM | 1.97 µM | 78.1 nM | 13.9 µM | 0.271 µM | 12.6 µM | 0.0449 µM | > 47.3 µM | 492 nM | 17 µM | 0.112 | 1.93 µM | 78.5 nM | 19 µM | 131 nM | 22.4 µM | 32.9 | 11.5 µM | 118 nM
CCC(=O)c1c(C(F)(F)F)n([O-])c2ccc(C)cc2[n+]1=O | 2830 nM | > 50 µM | > 50 µM | 22000 nM | > 50 µM | 5.99 µM | 16.6 µM | 12.4 µM | > 50 µM | 4990 nM | 14.9 µM | 5.92 | 21.9 µM | 11300 nM | > 50 µM | 14100 nM | > 50 µM | 6290 | 40.5 µM | 15900 nM
Nc1nc(-c2cccc(Cl)c2)c(-c2ccc3ncccc3n2)s1 | > 25000 nM | > 25 µM | > 25 µM | > 25000 nM | > 25 µM | > 25 µM | > 25 µM | > 25 µM | > 25 µM | > 25000 nM | > 25 µM | > 25 | > 25 µM | > 25000 nM | > 25 µM | > 25000 nM | > 25 µM | > 25000 | > 25 µM | > 25000 nM
